The text below walks through data of patent US20120129842A1, “BISTHIAZOLE INHIBITORS OF PRO-MATRIX METALLOPROTEINASE ACTIVATION” (priority 2010, published 2012).

Experiment [1] concerns the target T1, proMMP9(20-445;ΔFnII) (SEQ ID NO:6) (Homo sapiens, UniProt P14780, DEL216-390).
T1 construct: start methionine (N); made in house; host or cells: E. coli BL21(DE3) RIL
T1 sequence (P14780 with tags, fused parts or gaps DEL216-390): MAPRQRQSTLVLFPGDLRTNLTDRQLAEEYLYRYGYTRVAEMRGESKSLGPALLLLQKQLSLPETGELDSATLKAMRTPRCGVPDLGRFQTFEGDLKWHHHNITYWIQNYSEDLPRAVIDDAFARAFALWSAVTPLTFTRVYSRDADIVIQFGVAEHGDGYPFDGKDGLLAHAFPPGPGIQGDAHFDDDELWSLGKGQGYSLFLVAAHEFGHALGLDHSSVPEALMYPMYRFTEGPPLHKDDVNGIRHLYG
Briefly: ThermoFluor binding assay with proMMP9(20-445;ΔFnII). The conditions noted are these: pH 7.0. An outline of the steps: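 proMMP9(20-445;ΔFnII) at 2.8 μM with 50 μM 1,8-ANS in 50 mM HEPES pH 7.0, 100 mM NaCl, 0.001% Tween-20, 2.5 mM MgCl2, 300 μM CaCl2; compounds serially diluted in DMSO. Heated 40–90 °C at 1 °C/min, fluorescence read at 500±25 nm. Tm fit by standard equations; binding fit using DSC/TF-derived thermodynamic parameters.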

Experiment [2] concerns the target T2, proMMP9(67-444;ΔFnII) (SEQ ID NO:5) (Homo sapiens, UniProt P14780, DEL216-390).
T2 construct: start methionine (N); made in house; host or cells: E. coli BL21(DE3) RIL
T2 sequence (P14780 with tags, fused parts or gaps DEL216-390): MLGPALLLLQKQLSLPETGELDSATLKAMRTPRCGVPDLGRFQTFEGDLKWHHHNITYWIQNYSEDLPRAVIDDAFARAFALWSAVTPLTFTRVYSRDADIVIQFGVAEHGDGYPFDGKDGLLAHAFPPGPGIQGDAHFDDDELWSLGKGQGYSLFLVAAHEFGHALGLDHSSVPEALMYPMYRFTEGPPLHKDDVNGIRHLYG
Briefly: ThermoFluor binding assay with proMMP9(67-444;ΔFnII). Particulars: pH 7.0. Put shortly: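 Thermal shift binding with 3.5 μM proMMP9(67-444;ΔFnII) and 50 μM 1,8-ANS in 50 mM HEPES pH 7.0, 100 mM NaCl, 2.5 mM MgCl2, 300 μM CaCl2, 0.001% Tween-20, with serially diluted compound. Heated 40 to 90° C at 1° C/min; fluorescence-derived Tm fitted using DSC/ThermoFluor thermodynamic parameters.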
On the technique in general: DSF heats the sample and reads unfolding from a dye or from intrinsic fluorescence.

Experiment [3] deals with T3, full-length proMMP9(1-707) (SEQ ID NO:1) (Homo sapiens, UniProt P14780, R574P).
T3 construct: made in house; host or cells: HEK293 (proMMP9, secreted); E. coli (MMP3)
Briefly: ProMMP9/MMP3 DQ Gelatin Activation Assay. In kind it is biochemical. The conditions noted are these: 20 nM proMMP9, 10 nM MMP3, DQ gelatin; read-out: ProMMP9/MMP3 DQ gel Activation Assay, IC50.
Protocol: Compounds were assessed for inhibition of proMMP9 activation by catalytic MMP3 using a quenched fluorescein gelatin substrate (DQ gelatin, Invitrogen D12054) that fluoresces upon cleavage by activated MMP9. The assay buffer employed was 50 mM Hepes, pH 7.5, 10 mM CaCl2, 0.05% Brij-35. DMSO was included at a final concentration of 0.2%, arising from the test compound addition. […] Test compounds in DMSO were diluted 250-fold in assay buffer at 4× the final concentration. The reaction volume was 12 μL, and all reactions were conducted in triplicate. […] The plate was sealed and incubated for 30 min at 37° C. […] Immediately following the 30 min incubation, 4 μL of 40 μg/ml DQ gelatin substrate was added (freshly diluted in assay buffer), and incubated for 10 min at room temperature. The reaction was stopped by the addition of 4 μL of 50 mM EDTA, and the resulting activity associated with catalytic MMP9 was determined at 485 nm excitation, 535 nm emission using an Envision fluorescent reader (Perkin Elmer). Reactivity of residual MMP3 towards DQ gelatin was minimal under these conditions. Percent inhibition of test compounds were determined from suitable positive (DMSO only in assay buffer) and negative (EDTA added prior to reaction initiation) controls. Plots of % inhibition vs. test compound concentration were fit to a four-parameter logistics equation (GraphPad Prism® software) for determination of IC50.

Experiment [4] concerns the target proMMP13(1-268) (SEQ ID NO:7) (Homo sapiens, UniProt P45452). The experiment in a line: ThermoFluor binding assay with proMMP13(1-268). The conditions noted are these: pH 7.0. Set-up: 6xHis (C); made in house. An outline of the steps: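 Thermal shift binding with 3.5 μM protein and 25 μM 1,8-ANS in 50 mM HEPES pH 7.0, 100 mM NaCl, 0.001% Tween-20, 2.5 mM MgCl2, 300 μM CaCl2. Samples were heated 40 to 90 °C at 1 °C/min, fluorescence read at 500 nm. Tm shifts across an 11-point DMSO dilution series were fitted with DSC-derived thermodynamic parameters.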

Experiment [5] concerns the target T3, full-length proMMP9(1-707) (SEQ ID NO:1). Briefly: proMMP9/MMP3 P126 Activation Assay. In kind it is biochemical. Particulars: 20 nM proMMP9, 20 nM MMP3, 80 min 37° C. On the procedure: The reaction volume was 50 μL. […] Reactivity of residual MMP3 towards P-126 substrate was minimal under these conditions.

Where a name gives a salt, the structure may show the parent alone. A value given as a limit tells only on which side of the number the result lay.

T3 sequence (P14780 20-707 R574P): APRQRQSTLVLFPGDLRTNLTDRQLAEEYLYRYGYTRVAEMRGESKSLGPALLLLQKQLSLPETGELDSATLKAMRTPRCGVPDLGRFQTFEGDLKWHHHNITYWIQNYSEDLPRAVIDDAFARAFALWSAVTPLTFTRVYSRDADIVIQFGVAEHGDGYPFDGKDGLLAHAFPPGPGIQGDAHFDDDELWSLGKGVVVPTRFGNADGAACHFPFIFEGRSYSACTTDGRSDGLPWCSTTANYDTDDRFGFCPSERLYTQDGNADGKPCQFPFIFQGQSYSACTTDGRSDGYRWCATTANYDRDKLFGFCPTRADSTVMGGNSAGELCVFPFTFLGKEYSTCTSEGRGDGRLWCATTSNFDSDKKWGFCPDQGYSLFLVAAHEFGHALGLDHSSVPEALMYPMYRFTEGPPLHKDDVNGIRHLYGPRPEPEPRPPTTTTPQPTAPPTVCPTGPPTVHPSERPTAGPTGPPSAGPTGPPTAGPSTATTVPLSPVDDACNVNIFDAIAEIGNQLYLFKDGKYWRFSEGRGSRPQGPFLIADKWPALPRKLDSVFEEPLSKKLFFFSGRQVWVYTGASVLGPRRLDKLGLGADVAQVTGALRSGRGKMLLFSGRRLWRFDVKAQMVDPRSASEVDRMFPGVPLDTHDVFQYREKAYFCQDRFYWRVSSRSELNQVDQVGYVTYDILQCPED

In the case of `COc1ccc(C)cc1Nc1nc(-c2sc(NC(C)=O)nc2C)cs1` [Example 11, N-[2-(2-Methoxy-5-methyl-phenylamino)-4′-methyl-[4,5′]bithiazolyl-2′-yl]-acetamide], the Kd (as a rule, the constant that tells how readily two partners part at equilibrium) came to 9.8 µM in experiment [1], 1.1 µM in experiment [2] and 30 µM in experiment [4]. In addition, in experiment [3], the IC50 came to 9 µM.

In the case of `Cc1nc(CN2CCCN(C)CC2)sc1-c1csc(Nc2cc(C(N)=O)ccc2OC(C)C)n1` [Example 126, 4-Isopropoxy-3-[4′-methyl-2′-(4-methyl-[1,4]diazepan-1-ylmethyl)-[4,5′]bithiazolyl-2-ylamino]-benzamide.TFA], the Kd in experiment [1] came out at 1.1 µM; in experiment [2], 4.7 µM; in experiment [4], 11 µM. This molecule also displayed an IC50 in experiment [5] of 0.77 µM.

As for `Cc1nc(CN2CCC(O)CC2)sc1-c1csc(Nc2cc(C(N)=O)ccc2OC(C)C)n1` [Example 127, 3-[2′-(4-Hydroxy-piperidin-1-ylmethyl)-4′-methyl-[4,5′]bithiazolyl-2-ylamino]-4-isopropoxy-benzamide.TFA], the values for the Kd in experiment [1], in experiment [2] and in experiment [4] were 0.73 µM, 3.5 µM and 8.6 µM, respectively. The IC50 in experiment [5] turned out to be 0.65 µM.

As for `Cc1nc(CN2CCCCC2)sc1-c1csc(Nc2cc(C(N)=O)ccc2OC(C)C)n1` [Example 128, 4-Isopropoxy-3-(4′-methyl-2′-piperidin-1-ylmethyl-[4,5′]bithiazolyl-2-ylamino)-benzamide.TFA], the Kd in experiment [1] turned out to be 0.5 µM; in experiment [2], 2.7 µM; in experiment [4] it was 5.2 µM. Moreover, in experiment [5], the IC50 was found to be 1.3 µM.

As to `Cc1nc(CN(C)C)sc1-c1csc(Nc2cc(C(N)=O)ccc2OC(C)C)n1` [Example 129, 3-(2′-Dimethylaminomethyl-4′-methyl-[4,5′]bithiazolyl-2-ylamino)-4-isopropoxy-benzamide.TFA], the Kd in experiment [1] was 0.72 µM; in experiment [2] it was 4.7 µM; in experiment [4] it was 5.1 µM. In experiment [5], this molecule registered an IC50 of 1.2 µM.

Turning to `Cc1nc(CN2CCCC2)sc1-c1csc(Nc2cc(C(N)=O)ccc2OC(C)C)n1` [Example 130, 4-Isopropoxy-3-(4′-methyl-2′-pyrrolidin-1-ylmethyl-[4,5′]bithiazolyl-2-ylamino)-benzamide.TFA], the Kd in experiment [1] came to 0.55 µM; in experiment [2], 3 µM; in experiment [4], 4.9 µM. In addition, the IC50 in experiment [5] came out at 0.7 µM.

With `Cc1nc(CN2CCN(C)CC2)sc1-c1csc(Nc2cc(C(N)=O)ccc2OC(C)C)n1` [Example 131, 4-Isopropoxy-3-[4′-methyl-2′-(4-methyl-piperazin-1-ylmethyl)-[4,5′]bithiazolyl-2-ylamino]-benzamide.TFA], the values for the Kd in experiment [1], in experiment [2] and in experiment [4] were 0.77 µM, 3.3 µM and 5.6 µM, respectively. In addition, the IC50 in experiment [5] stood at 0.73 µM.

For the molecule `Cc1nc(S(C)(=O)=O)sc1-c1csc(Nc2cc(C(N)=O)ccc2OC(C)C)n1` [Example 132, 4-Isopropoxy-3-(2′-methanesulfonyl-4′-methyl-[4,5′]bithiazolyl-2-ylamino)-benzamide], the Kd was determined as 4.3 µM in experiment [1], 21 µM in experiment [2] and 11 µM in experiment [4]. The molecule further showed an IC50 in experiment [5] of 0.72 µM.

For `Cc1nc(CN(C)CCN(C)C)sc1-c1csc(Nc2cc(C(N)=O)ccc2OC(C)C)n1` [Example 133, 3-(2′-{[(2-Dimethylamino-ethyl)-methyl-amino]-methyl}-4′-methyl-[4,5]bithiazolyl-2-ylamino)-4-isopropoxy-benzamide.TFA], the Kd turned out to be 0.97 µM in experiment [1], 4 µM in experiment [2] and 3.8 µM in experiment [4]. The molecule further had an IC50 in experiment [5] of 0.66 µM.

With `COc1ccc(-c2cn[nH]c2)cc1Nc1nc(-c2sc(C)nc2C)cs1` [Example 138, (2′,4′-Dimethyl-[4,5′]bithiazolyl-2-yl)-[2-methoxy-5-(1H-pyrazol-4-yl)-phenyl]-amine], the Kd in experiment [1] came out at 1.7 µM; in experiment [2], 0.48 µM; in experiment [4], 0.83 µM. Moreover, the IC50 in experiment [5] was determined as 0.73 µM.

In the case of `COc1ccc(-c2ccnn2C)cc1Nc1nc(-c2sc(C)nc2C)cs1` [Example 139], the Kd was 75 µM in experiment [1], 11 µM in experiment [2] and 8.1 µM in experiment [4]. In addition, the IC50 in experiment [5] turned out to be 5.2 µM.

Take `C=Cc1ccc(OC)c(Nc2nc(-c3sc(C)nc3C)cs2)c1` [Example 140, (2′,4′-Dimethyl-[4,5′]bithiazolyl-2-yl)-(2-methoxy-5-vinyl-phenyl)-amine]: the Kd is more than 95 µM in experiment [1], 45 µM in experiment [2] and 26 µM in experiment [4]. The IC50 in experiment [5] is 5.5 µM.

Consider `COc1ccc(-c2cccnc2)cc1Nc1nc(-c2sc(C)nc2C)cs1` [Example 141, (2′,4′-Dimethyl-[4,5′]bithiazolyl-2-yl)-(2-methoxy-5-pyridin-3-yl-phenyl)-amine], for which the values for the Kd in experiment [1], in experiment [2] and in experiment [4] were more than 95 µM, 15 µM and 4.3 µM, respectively. This molecule also returned an IC50 in experiment [5] of approximately 12 µM.

Take `COc1ccc(-c2nccs2)cc1Nc1nc(-c2sc(C)nc2C)cs1` [Example 142, (2′,4′-Dimethyl-[4,5′]bithiazolyl-2-yl)-(2-methoxy-5-thiazol-2-yl-phenyl)-amine.TFA]: the Kd was more than 95 µM in experiment [1], 58 µM in experiment [2] and 6.7 µM in experiment [4]. In addition, the IC50 in experiment [5] is 11 µM.

On to `COc1ccc(-c2cncn2C)cc1Nc1nc(-c2sc(C)nc2C)cs1` [Example 143, (2′,4′-Dimethyl-[4,5′]bithiazolyl-2-yl)-[2-methoxy-5-(3-methyl-3H-imidazol-4-yl)-phenyl]-amine], for which the Kd was 62 µM in experiment [1], 16 µM in experiment [2] and 6 µM in experiment [4]. For the same molecule, in experiment [5], the IC50 is approximately 6 µM.

For `Cc1nc(C)c(-c2csc(Nc3cc(S(N)(=O)=O)ccc3OC(F)(F)F)n2)s1` [Example 144, 3-(2′,4′-Dimethyl-[4,5′]bithiazolyl-2-ylamino)-4-trifluoromethoxy-benzenesulfonamide.HCl], the Kd in experiment [1] worked out at 1 µM; in experiment [2], 2 µM; in experiment [4], 3.6 µM. The molecule also registered an IC50 in experiment [5] of 1.6 µM.

In the case of `CC(=O)Nc1nc(C)c(-c2csc(Nc3cccc4cccnc34)n2)s1` [Example 146, N-[4′-Methyl-2-(quinolin-8-ylamino)-[4,5′]bithiazolyl-2′-yl]-acetamide.TFA], the results for the Kd in experiment [1] and in experiment [2] were 4.6 µM and 1.3 µM, respectively. Moreover, the IC50 in experiment [3] was determined as 5.9 µM.

Regarding `COc1ncccc1Nc1nc(-c2sc(NC(C)=O)nc2C)cs1` [Example 147, N-[2-(2-Methoxy-pyridin-3-ylamino)-4′-methyl-[4,5′]bithiazolyl-2′-yl]-acetamide.TFA], the results for the Kd in experiment [1] and in experiment [2] were 12 µM and 7.6 µM, respectively. Moreover, the IC50 in experiment [3] worked out at 20 µM.

For the molecule `CC(=O)Nc1nc(C)c(-c2csc(Nc3cccnc3O)n2)s1` [Example 148, N-[2-(2-Hydroxy-pyridin-3-ylamino)-4′-methyl-[4,5′]bithiazolyl-2′-yl]-acetamide.HBr], the Kd in experiment [1] and in experiment [2] was more than 8 µM throughout. In addition, the IC50 in experiment [3] was 6 µM.

With `CC(=O)Nc1nc(C)c(-c2csc(Nc3cccc4ccccc34)n2)s1` [Example 149, N-[4′-Methyl-2-(naphthalen-1-ylamino)-[4,5′]bithiazolyl-2′-yl]-acetamide.HCl], the results for the Kd in experiment [1], in experiment [2] and in experiment [4] were 5 µM, 4.4 µM and 40 µM, respectively. For the same molecule, in experiment [3], the IC50 worked out at 27 µM.

On to `CC(C)Oc1ccc(C(N)=O)cc1Nc1nc(-c2sc(N)nc2C(F)(F)F)cs1` [Example 150, 3-(2′-Amino-4′-trifluoromethyl-[4,5′]bithiazolyl-2-ylamino)-4-isopropoxy-benzamide], for which the Kd in experiment [1] came out at 0.16 µM; in experiment [2], 1.3 µM; in experiment [4], 0.22 µM. For the same molecule, the IC50 in experiment [5] was 1.2 µM.
